# Activity calls are given as the source filed them. No cut-off for these calls is given here.
# Key:
# [1] = molecular target: Stimulator of interferon genes protein (Homo sapiens) (UniProt Q86WV6); test: Inhibition of STING downstream signalling in human THP1-Dual cells assessed as inhibition of cGAMP induced IP-10 mRNA expression at 0.3 to 3 uM pre-treated for 1 hr followed by stimulated with cGAMP measured after 4 hrs by real-time PCR analysis; type: cell-based; conditions: dose 0.3-3 µM, time 5.0 hrs
# Sequence of Stimulator of interferon genes protein (Homo sapiens) (Q86WV6 whole entry): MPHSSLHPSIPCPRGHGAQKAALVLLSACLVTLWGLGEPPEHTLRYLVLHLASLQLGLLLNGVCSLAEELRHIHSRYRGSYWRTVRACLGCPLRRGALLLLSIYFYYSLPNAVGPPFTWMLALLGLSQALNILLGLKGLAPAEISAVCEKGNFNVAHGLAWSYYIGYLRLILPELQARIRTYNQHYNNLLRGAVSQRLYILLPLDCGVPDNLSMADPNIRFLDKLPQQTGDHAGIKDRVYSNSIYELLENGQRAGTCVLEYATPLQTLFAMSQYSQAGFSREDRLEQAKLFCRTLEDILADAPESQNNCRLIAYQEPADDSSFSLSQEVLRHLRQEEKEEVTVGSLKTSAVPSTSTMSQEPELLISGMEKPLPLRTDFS
# Mus musculus [2] = test: Anti-inflammatory activity against Cisplatin induced C57BL/6 mouse kidney inflammation model assessed as prevention of Cisplatin induced glomerular injury at 5 mg/kg, ip treated for 3 days; type: functional, organism-based; conditions: time 3.0 day
# Mus musculus [3] = test: Effect on Isg56 expression in Cisplatin induced C57BL/6 STING-KO mouse kidney inflammation model at 5 mg/kg, ip treated for 3 days by real-time PCR analysis; type: functional, organism-based; conditions: time 3.0 day
# [4] = molecular target: Stimulator of interferon genes protein (Homo sapiens) (UniProt Q86WV6); test: Inhibition of STING downstream signalling in human THP1-Dual cells assessed as inhibition of HT-DNA induced ISG56 mRNA expression at 0.3 to 3 uM pre-treated for 1 hr followed by stimulated with HT-DNA measured after 4 hrs by real-time PCR analysis; type: cell-based; conditions: dose 0.3-3 µM, time 5.0 hrs
# Mus musculus [5] = test: Anti-inflammatory activity against MSA-2 induced C57BL/6 mouse inflammation model assessed as inhibition of MSA-2 induced TNF-alpha mRNA expression in kidney at 10 mg/kg, ip pre-treated for 1 hr followed by stimulated with MSA-2 for 4 hrs by real-time PCR analysis; type: functional, organism-based; conditions: time 5.0 hrs
# [6] = molecular target: Stimulator of interferon genes protein (Homo sapiens) (UniProt Q86WV6); test: Inhibition of STING downstream signalling in human THP1-Dual cells assessed as inhibition of MSA-2 induced IFN-beta secretion at 0.3 to 3 uM pre-treated for 1 hr followed by stimulated with MSA-2 measured after 24 hrs by ELISA; type: cell-based; conditions: dose 0.3-3 µM, time 25.0 hrs
# Mus musculus [7] = test: Anti-inflammatory activity against MSA-2 induced C57BL/6 mouse inflammation model assessed as inhibition of MSA-2 induced IL-6 mRNA expression in kidney at 10 mg/kg, ip pre-treated for 1 hr followed by stimulated with MSA-2 for 4 hrs by real-time PCR analysis; type: functional, organism-based; conditions: time 5.0 hrs
# [8] = molecular target: T1, Stimulator of interferon genes protein (Mus musculus) (UniProt Q3TBT3); test: Inhibition of STING downstream signalling in mouse BMDM cells assessed as inhibition of MSA-2 induced Isg15 mRNA level pre-treated for 1 hr followed by stimulated with MSA-2 measured after 4 hrs by real-time PCR analysis; type: cell-based; conditions: dose 0.3-3 µM, time 5.0 hrs
# T1 sequence (whole entry): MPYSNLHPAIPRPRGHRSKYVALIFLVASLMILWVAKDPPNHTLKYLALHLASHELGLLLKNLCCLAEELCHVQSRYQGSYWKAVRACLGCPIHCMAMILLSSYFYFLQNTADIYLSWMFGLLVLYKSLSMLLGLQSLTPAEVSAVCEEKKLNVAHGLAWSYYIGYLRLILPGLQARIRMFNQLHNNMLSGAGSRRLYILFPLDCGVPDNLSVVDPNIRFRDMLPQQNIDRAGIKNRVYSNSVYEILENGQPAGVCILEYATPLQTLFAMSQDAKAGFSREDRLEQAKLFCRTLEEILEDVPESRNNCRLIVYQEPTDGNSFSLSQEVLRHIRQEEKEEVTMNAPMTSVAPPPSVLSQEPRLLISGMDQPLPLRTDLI
# [9] = molecular target: Stimulator of interferon genes protein (Homo sapiens) (UniProt Q86WV6); test: Inhibition of STING in human THP1-Dual cells assessed as inhibition of MSA-2 induced ISG signalling measured after 1 hr incubation followed by stimulated with MSA-2 by Western blotting analysis; type: cell-based
# Mus musculus [10] = test: Anti-inflammatory activity in TREX1 D18N mouse model assessed as reduction in IL6 mRNA expression in heart at 10 mg/kg, ip measured after 2 weeks; type: functional, organism-based
# Mus musculus [11] = test: Anti-inflammatory activity in TREX1 D18N mouse model assessed as reduction in Cxcl10 mRNA expression in heart at 10 mg/kg, ip measured after 2 weeks; type: functional, organism-based
# [12] = molecular target: T1, Stimulator of interferon genes protein (Mus musculus); test: Inhibition of STING downstream signalling in mouse BMDM cells assessed as inhibition of MSA-2 induced IRF3 phosphorylation pre-treated for 1 hr followed by stimulated with MSA-2 measured after 4 hrs by Western blot analysis; type: cell-based; conditions: dose 0.3-3 µM, time 5.0 hrs
# [13] = molecular target: Stimulator of interferon genes protein (Homo sapiens) (UniProt Q86WV6); test: Inhibition of STING in human THP1-Dual cells assessed as inhibition of HT-DNA induced cGAS activation measured after 1 hr incubation followed by stimulated with HT-DNA by Western blotting analysis; type: cell-based
# [14] = molecular target: T2, Stimulator of interferon genes protein (Mus musculus, UniProt Q3TBT3); test: Inhibition of mouse STING in mouse RAW cells assessed as secreted luciferase reporter of interferon stimulated gene (ISG) measured after 24 hrs incubation by QUANTI-Luc detection assay; type: cell-based
# T2 sequence (Q3TBT3 whole entry): T1 sequence (whole entry)
# Mus musculus [15] = test: Anti-inflammatory activity in TREX1 D18N mouse model assessed as reduction in Ifn-beta mRNA expression in kidney at 10 mg/kg, ip measured after 2 weeks; type: functional, organism-based
# [16] = molecular target: T1, Stimulator of interferon genes protein (Mus musculus); test: Inhibition of STING downstream signalling in mouse RAW264.7 cells assessed as inhibition of DMAAA induced TNFalpha secretion level at 0.3 to 3 uM pre-treated for 1 hr followed by stimulated with DMAAA measured after 24 hrs by ELISA; type: cell-based; conditions: dose 0.3-3 µM, time 25.0 hrs
# Mus musculus [17] = test: Anti-inflammatory activity in TREX1 D18N mouse model assessed as reduction in Ccl5 mRNA expression in kidney at 10 mg/kg, ip measured after 2 weeks; type: functional, organism-based
# Mus musculus [18] = test: Anti-inflammatory activity in TREX1 D18N mouse model assessed as reduction in Ifn-beta mRNA expression in heart at 10 mg/kg, ip measured after 2 weeks; type: functional, organism-based
# [19] = molecular target: Stimulator of interferon genes protein (Homo sapiens) (UniProt Q86WV6); test: Binding affinity to Flag-tagged human STING expressed in HEK293T cells assessed as labelling at 0.5 to 4 uM pretreated for 15 mins measured after 1 hr in presence of 1 uM 1-(2,2-difluorobenzo[d][1,3]dioxol-5-yl)-3-(5-ethynyl-1H-indol-3-yl)urea by TAMRA-N3 fluorescent assay; type: cell-based; conditions: dose 0.5-4 µM, time 75.0 min
# THP1-Dual = test: Cytotoxicity against human THP1-Dual cells assessed as cell viability measured after 24 hrs by CCK8 assay; type: functional, cell-based
# [20] = molecular target: Stimulator of interferon genes protein (Homo sapiens) (UniProt Q86WV6); test: Inhibition of human wild type STING (R232) expressed in human THP-1 Dual cells assessed as reduction in cGAMP-induced IL-6 expression; type: cell-based; conditions: 293-Dual hSTING-R232
# Mus musculus [21] = test: Anti-inflammatory activity against MSA-2 induced C57BL/6 mouse inflammation model assessed as inhibition of MSA-2 induced IL-6 level in plasma at 10 mg/kg, ip pre-treated for 1 hr followed by stimulated with MSA-2 for 4 hrs by ELISA; type: functional, organism-based; conditions: time 5.0 hrs
# [22] = Metabolic stability in human liver microsomes assessed as half life; type: ADME, Microsome
# [23] = Metabolic stability in rat liver microsomes assessed as microsomal intrinsic clearance; type: ADME, Microsome; conditions: read-out: CLH
# [24] = molecular target: Stimulator of interferon genes protein (Homo sapiens) (UniProt Q86WV6); test: Inhibition of human wild type STING (R232) expressed in human 293-Dual hSTING-R232 cells assessed as reduction in cGAMP-induced TNF-alpha expression; type: cell-based
# [25] = molecular target: T1, Stimulator of interferon genes protein (Mus musculus); test: Inhibition of STING downstream signalling in mouse RAW264.7 cells assessed as inhibition of […] induced IL-6 secretion level at 0.3 to 3 uM pre-treated for 1 hr followed by stimulated with […] measured after 24 hrs by ELISA; type: cell-based; conditions: dose 0.3-3 µM, time 25.0 hrs
structure (smiles),measurement,setting,value
N#CC/C=C/c1ccc2[nH]cc(NC(=O)Nc3ccc4c(c3)OC(F)(F)O4)c2c1,inhibition,[1],Active
same,inhibition,Mus musculus [2],inactive
same,Activity,Mus musculus [3],inactive
same,inhibition,[4],Active
same,inhibition,Mus musculus [5],Active
same,inhibition,[6],Active
same,inhibition,Mus musculus [7],Active
same,inhibition,[8],Dose-dependent-effect
same,inhibition,[9],Dose-dependent-effect
same,Activity,Mus musculus [10],Active
same,Activity,Mus musculus [11],Active
same,inhibition,[12],Dose-dependent-effect
same,inhibition,[13],Dose-dependent-effect
same,IC50,[14],96.3 nM
same,Activity,Mus musculus [15],Active
same,inhibition,[16],Active
same,Activity,Mus musculus [17],Active
same,Activity,Mus musculus [18],Active
same,Activity,[19],inactive
same,inhibition,THP1-Dual,inactive
same,inhibition,[20],Active
same,inhibition,Mus musculus [21],Active
same,half-life,[22],33.8 min
same,microsomal CLint,[23],36 µL/min/mg
same,inhibition,[24],Active
same,inhibition,[25],Active

# — ChEMBL document CHEMBL6109147, “Discovery of Potent STING Inhibitors Bearing a Difluorobenzodioxol Structural Motif as Potent Anti-Inflammatory Agents” (J Med Chem, 2025)
